Experimental findings from patent US5332743A, “Benzyl and benzhydryl alcohols” (priority 1992, dated 1994) are described below.

Data set [1] concerns Conditioned Avoidance Responding (Rat). The data set can be described thus: Block of Conditioned Avoidance Responding (Rat) test (CAR). In kind it is in vivo. The settings on record: for change in vivo at 5 mg/kg: read-out: CAR 5 mg/kg (IP) (mean % change in CAR); for Escape Loss (% failures to escape, group mean): at CAR 5 mg/kg IP. From the text: Block of Conditioned Avoidance Responding (Rat)
Apparatus: Rat operant chambers, housed within sound attenuated booths, both from Capden Instruments Ltd., were used in this test. The test chamber (8" H×90-3/8" W×9" D) is constructed of aluminum and plexiglass with floor grid bars of stainless-steel (1/8" O.D.) spaced 9/16" apart. A stainless-steel operation level 1-1/2" wide projects 3/4" into the chamber and is positioned 2-2/8" above the grid floor. The shock stimulus is delivered via the grid floor by a Coulbourn Instruments solid state module. The parameters of the test and the collection of data are controlled automatically.
The rats are trained for two weeks to approach criterion levels in the avoidance test (90% avoidance rate). One-hour training sessions are run at about the same time each day for four or five days a week. The training session consists of 120 trials, with the conditioned stimuli presented every 30 seconds. A trail begins with presentation of the conditioned stimuli (a light and a tone). If the rat responds by depressing the operant lever during the 15-second presentation of the conditioned stimuli, the trial is terminated and the animal is credited with a CAR. Failure to respond during the conditioned stimuli causes the presentation of the unconditioned stimulus, a 0.7 mA shock which is accompanied by a light and tone for […]. If the rat depressed the lever within the ten-second period, the shock and trial are terminated and an escape response recorded. If the rat fails to depress the lever during the UCS (shock), the trial is terminated after ten seconds of shock and the absence of a response is scored as a failure to escape. Intertrial level presses have no effect. If a rat performs at the 90% CAR level for two weeks, it is then run twice a week o the test schedule (see below) until baseline performance stabilized.
The percent change in CAR on the drug treatment day compared to vehicle pretreatment day is the key measure. The percent change (% change) in CAR is determined using the following formula:
% change CAR=((Day 2% CAR/Day 1% CAR)×100)-100
A negative number indicates a blockade of CAR, whereas a positive number would indicate increased CAR. The test results are reported as the mean % change for the group of rats. […] Failure to escape was calculated for each animal as follows:
% Failures=# of Failures to Escape/# of trials
The % failures, viz., loss of escape, is also reported as a group mean. Failures to escape are monitored closely and a session is terminated if ten failures occurred.

For the next data set, the target named is T1, dopamine D2 receptor (Rattus norvegicus, UniProt P61169).
T1 construct: P2 fraction (synaptosomal membranes) prepared from male, Wistar rats; from tissue; host or cells: striatum of male Wistar rats, P2 fraction (synaptosomal membranes)
The data set can be described thus: Receptor Binding Assay: dopamine D2 binding, 3H-spiperone, striatal P2 fraction. The settings on record: 3H-spiperone 0.05 nM, 45 min at 37° C., read-out: D-2 Binding K-I. The protocol:
The dopamine D2 binding activity of compounds was determined using a P2 fraction (synaptosomal membranes) prepared from male, Wistar rats. […] The data from this assay were analyzed by calculating the percent inhibition of the binding of the tritiated ligands by given concentrations of the test compound. Ki values, where given, were obtained from the logit analysis of concentration-inhibition curves.

The mark [2] stands for this setting: rat, 5 mg/kg IP, negative number = blockade of CAR, -20% is the minimum for active.

Like-named read-outs stand apart in the source and are kept apart here.

T1 sequence (P61169 whole entry): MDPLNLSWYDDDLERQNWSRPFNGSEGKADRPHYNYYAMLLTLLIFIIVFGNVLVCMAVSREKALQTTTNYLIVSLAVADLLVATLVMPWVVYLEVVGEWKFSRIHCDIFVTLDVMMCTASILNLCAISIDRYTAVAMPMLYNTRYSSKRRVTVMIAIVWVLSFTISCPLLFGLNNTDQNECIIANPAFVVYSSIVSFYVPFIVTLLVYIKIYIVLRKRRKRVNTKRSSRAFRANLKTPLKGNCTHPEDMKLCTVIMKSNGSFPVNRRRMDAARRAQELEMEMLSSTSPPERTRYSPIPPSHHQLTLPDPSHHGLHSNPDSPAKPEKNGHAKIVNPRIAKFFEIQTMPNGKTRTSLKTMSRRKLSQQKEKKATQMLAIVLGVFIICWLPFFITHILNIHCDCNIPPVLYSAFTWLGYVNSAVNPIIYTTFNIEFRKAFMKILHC

With `COc1ccccc1N1CCN(Cc2cccc(C(O)c3ccccc3)c2)CC1` (stereo not drawn) [Compound 5, [3-[4-(2-Methoxyphenyl)-1-piperazinyl]methyl]-α-phenylbenzenemethanol], in data set [1] (setting [2]), the change in vivo at 5 mg/kg is -64.6%. The “Escape Loss (% failures to escape, group mean)” value in data set [1] (rat) was found to be 2%. For the same compound, at dopamine D2 receptor, the Ki is 87 nM.
As to `CC(C)Oc1ccccc1N1CCN(Cc2cccc(CO)c2)CC1` [Compound 4, 1-(3-Hydroxymethylphenyl)methyl-4-[2-(1-methylethoxy)phenyl]-piperazine], the change in vivo at 5 mg/kg in data set [1] (Rattus norvegicus, ip) is -89.2%. In addition, the “Escape Loss (% failures to escape, group mean)” value in data set [1] (rat) is on record as 13%. For the same compound, at dopamine D2 receptor, the Ki is 302 nM.
With `COc1ccccc1N1CCN(Cc2ccc(C(O)c3ccccc3)cc2)CC1` (stereo not drawn) [Compound 9, [4-[4-(2-Methoxyphenyl)-1-piperazinyl]methyl]-α-phenylbenzenemethanol], the change in vivo at 5 mg/kg in data set [1] (setting [2]) was -99.4%. In data set [1] (rat), the “Escape Loss (% failures to escape, group mean)” value was found to be 32%. In addition, the Ki on dopamine D2 receptor was 53 nM.
On to `CCC(C)(O)c1cccc(CN2CCN(c3ccccc3OC)CC2)c1` (stereo not drawn) [Compound 6, [3-[4-(2-Methoxyphenyl)-1-piperazinyl]methyl]-α-methyl-α-ethylbenzenemethanol], for which, in data set [1] (setting [2]), the change in vivo at 5 mg/kg was -86%. Further, the “Escape Loss (% failures to escape, group mean)” value in data set [1] (rat) is listed as 2%. In addition, the Ki on dopamine D2 receptor was determined as 198 nM.
Regarding `COc1ccccc1N1CCN(Cc2cccc(C(O)C(C)C)c2)CC1` (stereo not drawn) [Compound 7, [3-[4-(2-Methoxyphenyl)-1-piperazinyl]methyl]-α-(1-methylethyl)-benzenemethanol], the change in vivo at 5 mg/kg in data set [1] (setting [2]) is -98.8%. Moreover, the “Escape Loss (% failures to escape, group mean)” value in data set [1] (rat) was determined as 12%. Besides, at dopamine D2 receptor, the Ki stood at 90 nM.
For the compound `COc1ccccc1N1CCN(Cc2cccc(C(O)C3CCCCC3)c2)CC1` (stereo not drawn) [Compound 8, [3-[4-(2-Methoxyphenyl)-1-piperazinyl]methyl]-α-(cyclohexyl)-benzenemethanol], the change in vivo at 5 mg/kg in data set [1] (setting [2]) is -92.9%. Besides, the “Escape Loss (% failures to escape, group mean)” value in data set [1] (rat) worked out at 2%. Moreover, at dopamine D2 receptor, the Ki was found to be 16 nM.
